Tests used:
[1] = test system: E15 DIV3 mouse hippocampal neurons; experiment: Pretreatment with antibodies or inhibitors before proNGF addition, growth cone / filopodial collapse; type: cell-based; conditions: for effect of pretreatment on proNGF-induced growth cone / filopodial collapse: pretreatment before proNGF for 20 min, 20 μg/ml antibody or control IgG 20 min, 100 nM Gö6976
Procedure: (§1) To assay which pathways are involved in filopodial collapse, 5-10 ng/ml proNGF, 10 ng/ml proBDNF, 25-50 ng/ml BDNF (Peprotech) or 25-100 ng/ml NGF (Harlan) was added to E15 primary hippocampal neurons for 20 min before fixation. In some cases, cells were pretreated with 100 nM K-252a (Calbiochem) for 20 min, 100 nM Gö6976 (Calbiochem) for 1 hour, 5 μM EHT1864 (Sigma) for 30 min or 100 nM ITX3 (ChemBridge Corporation, cat. no. 6007262) for 45 min. To block SorCS2, cells were incubated with 20 μg/ml anti-SorCS2 or control IgG for 20 min on ice before proNGF addition at 37° C.
(§2) DIV3 hippocampal neurons were fixed in 4% paraformaldehyde/20% sucrose for 10 min. The fixative was quenched with 50 mM NH4Cl in PBS for 5 min and cells were permeabilized with 0.1% TritonX-100 in PBS for 2 min. Alternatively, cells were fixed with ice-cold methanol for 5 min. Coverslips were blocked with 10% normal donkey serum, 2% bovine serum albumin and 0.25% fish skin gelatin in Tris-buffered saline for 30 min, incubated with primary antibodies diluted in blocking solution for 30 min, washed three times with Tris-buffered saline/0.25% fish skin gelatin, incubated with secondary antibodies mixed with Hoechst in blocking buffer for additional 30 min, washed and mounted using Mowio1488. Cells were imaged using a LSM510 laser-scanning confocal microscope equipped with a 40× Plan Neofluor NA1.3 DIC oil-immersion objective (Carl Zeiss Microimaging). Images were processed using LSM510 software (Zeiss) and ImageJ (NIH).
(§3) Primary hippocampal and cortical neurons were isolated from E15 C57BL/6 mouse embryos as previously described (PEREIRA, D. B. et al., Journal of Neuroscience 27:4859-4869 (2007)). Briefly, neurons were dissociated by incubation with 0.05% trypsin at 37° C. for 8 min followed by trituration with fire-polished glass Pasteur pipettes. Cells were plated on poly-D-lysine coated dishes and grown in Neurobasal medium containing B27, 0.5 mM glutamine (all Invitrogen) and 10 μM 5-fluorodeoxyuridine. Hippocampal neurons were transfected at DIV2 using Lipofectamine2000 (Invitrogen). For coverslips in a 24-well plate, 0.5 μg plasmid were mixed with 0.5 μl Lipofectamine2000, and for glass bottom dishes, 1.5 μg plasmid were mixed with 1.5 μl Lipofectamine2000. The complexes were added to the cells for 30-45 min, and then neurons were placed back into preconditioned media until analysis the following day. HT1080 cells were grown in DMEM/10% fetal bovine serum (both Invitrogen) and transfected using the AMAXA nucleofector (Lonza) according to manufacturer's instructions. 293FT cells were grown in DMEM/10% fetal bovine serum and transfected with Lipofectamine2000 according to manufacturer's instructions.

[2] = test system: E15 DIV3 mouse hippocampal neurons; experiment: proNT-induced growth cone collapse in cultured hippocampal neurons (live imaging and immunofluorescence); type: cell-based; conditions: for growth cone collapse caused by the inhibitor alone: DIV3 hippocampal neurons, 5 μM EHT1864 30 min, 100 nM ITX3 45 min
Procedure: as §1, §2
Cells were plated on gridded glass bottom dishes (MatTek Corporation) and imaged at DIV3 in phenol red-free Neurobasal medium (Invitrogen) supplemented with 30 mM HEPES-NaOH, pH7.4 using an Olympus IX71 inverted microscope driven by IPLab software (BD Biosciences) and equipped with a 60× PlanApoN objective (NA 1.42), a Hamamatsu EM-CCD camera and a heated stage maintained at 37° C., or driven by softWoRX software (version 3.7.1, DeltaVision), and equipped with a CoolSnap HQ2 camera (Photometrics) and an environmental chamber maintained at 37° C. Images were taken every 15 seconds. After live imaging cells were fixed, counterstained for p75, located by grid number and examined for p75 expression. All movies were exported and processed using IPLab (BD Biosciences), softWoRX (version 3.7.1, DeltaVision) and ImageJ (NIH) software. Filopodia length and speed were both analyzed using ImageJ (NIH) software. For this, two times ten consecutive frames, spaced 5-10 min apart, were analyzed before and again after treatment. In the length analysis, a line was drawn along an individual filopodium and measured at every time point, and the measurements were averaged before and after treatment. For the speed analysis, the filopodial tip was tracked using the ImageJ Manual Tracking plugin. Up to four individual filopodia were analyzed per movie, and a minimum of four movies taken from separate experiments were analyzed per condition.
as §3, with “HT1080 cells were grown in DMEM/10% fetal bovine serum (both Invitrogen) and transfected using the AMAXA nucleofector (Lonza) according to manufacturer's instructions. 293FT cells were grown in DMEM/10% fetal bovine serum and transfected with Lipofectamine2000 according to manufacturer's instructions.” left out

Rac = Rac activity assay (GST-Pak-CRIB pull-down of activated Rac); type: cell-based, mouse; conditions: primary neuronal cultures
Procedure: Rac activity assays were performed as described previously (NEUBRAND, V. E. et al., Journal of Cell Science 123:2111-2123 (2010)). […] Cells were lysed in lysis buffer supplemented with 10 mM MgCl, lysates were cleared by centrifugation at 9000 g for 1 min, and cleared lysates were incubated with GST or GST-Pak-CRIB beads for 30 min at 4° C. Beads were washed and isolated active Rac was analyzed by Western blot. As a control, extra lysates were incubated with 0.1 mM GDP or 0.1 mM GTPγS for 30 min at room temperature before incubation with GST-Pak-CRIB beads. Western blots were analyzed by densitometry using ImageJ software, and isolated active Rac was normalized to the input.
GST and GST-Pak-CRIB proteins were expressed in E. coli BL21DE3 cells at 25° C. for 3 hours. Bacteria were disrupted by incubation with PBS supplemented with lysozyme on ice for 30 min and subsequent addition of 1 mM MgCl2, 0.1% TritonX-100 and 0.1 mg/ml DNAse for an additional 30 min. Bacterial lysates were cleared by centrifugation for 5 min at 3000 g and cleared lysates were incubated with glutathione sepharose. Beads were washed and the purity of the recombinant proteins was analyzed by Coomassie blue staining. 20 μg of sepharose coupled purified protein was used per reaction.

20-28: small peptide inhibitor 20-28 (of PKC) (FARKGALRQ; UniProt P17252 20-28, looked up, fragment)
effect of pretreatment on proNGF-induced growth cone / filopodial collapse [1]: exposure to proNGF failed to induce collapse of actin-rich structures

Cn1c2ccccc2c2c3c(c4c5ccccc5n(CCC#N)c4c21)CNC3=O [Gö6976]
effect of the agent alone on neuronal / actin morphology ([1]; agent alone, without proNGF): had no effect on actin morphology | effect of pretreatment on proNGF-induced growth cone / filopodial collapse [1]: exposure to proNGF failed to induce collapse of actin-rich structures

O=c1cc(CN2CCOCC2)occ1OCCCCCSc1ccnc2cc(C(F)(F)F)ccc12 [EHT 1864, reference compound]
growth cone collapse caused by the inhibitor alone [2]: led to the collapse of growth cone structures | Rac activity after inhibitor treatment (Rac): striking decrease in Rac activity

Cc1cc(/C=c2/sc3nc4ccccc4n3c2=O)c(C)n1-c1ccccc1 [ITX3, reference compound]
growth cone collapse caused by the inhibitor alone [2]: led to the collapse of growth cone structures | Rac activity after inhibitor treatment (Rac): striking decrease in Rac activity

C3 transferase [reference compound]
growth cone collapse caused by the inhibitor alone [2]: neither induced growth cone collapse | effect of pretreatment on proNGF-induced growth cone / filopodial collapse [1]: nor did they interferen with proNGF-mediated growth cone collapse

C[C@@H](N)[C@H]1CC[C@H](C(=O)Nc2ccncc2)CC1 [Y-27632, reference compound]
growth cone collapse caused by the inhibitor alone [2]: neither induced growth cone collapse | effect of pretreatment on proNGF-induced growth cone / filopodial collapse [1]: nor did they interferen with proNGF-mediated growth cone collapse

B1: NGF: mature nerve growth factor (Harlan) (protein, UniProt P01139 122-241, looked up)
Beta-nerve growth factor: SSTHPVFHMGEFSVCDSVSVWVGDKTTATDIKGKEVTVLAEVNINNSVFRQYFFETKCRASNPVESGCRGIDSKHWNSYCTTTHTFVKALTTDEKQAAWRFIRIDTACVCVLSRKATRRG
growth cone collapse ([2]; p75NTR-positive cells, 20 min exposure, 10 ng/ml proNGF, 10 ng/ml proBDNF with K252a, 5 ng/ml NGF): nor did NGF lead to actin rearrangements
